Entries after “also recorded” stand apart in the source; their conditions may differ.

Data set [1] is described as follows: Toxicity: animal body weight and H&E staining of major organs. The format is in vivo, mouse. Conditions: mice with lung cancer; 1 mg/kg of 5-aza-dC and MS-275 twice per week for 6 weeks.
For data set [2], the system named is lung cancer induced by urethane. Nature of the data set: Urethane model of lung cancer, tumor examination. Conditions: for tumor number and tumor burden: WT mice, carboplatin and paclitaxel together. The format is in vivo, mouse. The procedure:
(§1) Urethane model: 6-8-week-old mice under FVB/N background were intraperitoneally (i.p.) injected with urethane (1 g/kg body weight, Sigma-Aldrich, St. Louis, MO, USA) once a week for six weeks. All mice were sacrificed for lung tumor examinations seven (for no drug treatment experiments) or six (for drug treatment experiments) weeks post urethane treatment. For drug treatment experiments, the epigenetic agents 5-aza-dC (1 mg/kg body weight, Sigma-Aldrich, St. Louis, MO, USA) and MS-275 (1 mg/kg body weight, Selleckchem, Houston, TX, USA), chemotherapeutic drugs carboplatin (30 mg/kg body weight, AdipoGen, San Diego, CA, USA) and paclitaxel (15 mg/kg body weight, AdipoGen, San Diego, CA, USA), and/or PD-1 neutralizing antibody (200 μg/mouse, BioXCell, West Lebanon, NH, USA) were i.p injected as indicated in FIG. 4. Surface tumors in mouse lungs were counted by three blinded readers under a dissecting microscope, and tumor diameters were measured by microcalipers. K-Ras^G12D model: 6-8-week-old mice under FVB/N background were intranasally administered 1×10^7 plaque-forming units of Cre-expressing adenovirus (adenocre; Gene Transfer Vector Core, University of Iowa, Iowa City, IA). Three months post AdenoCre treatment, all mice were sacrificed for lung tumor examinations.
PDLIM2flx/flx/SP-C-rtTAtg/−/(tetO)7CMV-Cretg/tg (ΔSPC) mice under a pure FVB/N background and PDLIM2−/− mice under a pure BABL/C background have been described before (Sun et al., Nat. Commun. 2019. 10, 5324). For lung carcinogenesis, six to eight week old ΔSPC and wild type FVB/N mice were intraperitoneally (i.p.) injected with urethane (1 mg/g body weight, Sigma-Aldrich, St. Louis, MO, USA) once a week for six consecutive weeks, followed by different treatment as shown in FIGS. 45A and 49A. Mice were sacrificed for lung inflammation and tumor examinations at six weeks post urethane treatment. Surface tumors in mouse lungs were counted blinded under a dissecting microscope, and tumor diameters were measured by microcalipers. […]

For the next data set, the system named is human lung cancer cells. Nature of the data set: Cell growth assays. The class given is cell-based. The procedure: Cells were seeded into 12-well plates at a density of 5,000 cells per well, in the presence or absence of the indicated treatment. Cell density was determined by replacing the medium with 2 μmol/L of calcein AM in 1× dissociation solution (Trevigen) at the indicated time points. After 1 h of incubation, diesterase activity (relative fluorescence units) was measured with a Tecan Infinite 200 Microplate Reader, using an excitation wavelength of 485 nm and emission wavelength of 520 nm.

The test system of data set [3] is PD-L1. The experiment in a line: qPCR of PD-L1 in lung cancer cells. The class given is cell-based, human. An excerpt: Mouse lung tissues and BAL cells were subjected to RNA extraction, RNA reverse transcription and real-time PCR as described (Li et al., Oncoimmunology 7, e1435250 (2018); Sun et al., Bio. Protoc. 7, pii: e2287 (2017)).
(In qPCR the cycle at which signal appears reflects the starting amount.)

In data set [4] the test system is PD-L1. The experiment in a line: IHC staining of PD-L1 in lung cancer (urethane model). The class given is in vivo, mouse. Conditions: carboplatin and paclitaxel (chemotherapy). The procedure:
as §1
Mouse or tissues were excised, fixed in formalin, embedded in paraffin, and cut into […] sections. Sections were stained with H&E, or subjected to sequential incubations with different primary antibodies and peroxidase-conjugated goat anti-rabbit secondary antibodies. The human lung tumor tissue arrays were described previously (Sun et al., Oncogene 35, 2299-2310 (2016)).
Lung tissues were excised, fixed in formalin, embedded in paraffin, and cut into 4-μm-thick sections. Sections were stained with H&E, or subjected to sequential incubations with the indicated primary antibodies, biotinylated secondary antibodies and streptavidin-HRP.

A further data set relates to MDR1. Nature of the data set: qPCR of MDR1 in A549 lung cancer cells. The class given is cell-based, human. As to conditions: with or without PDLIM2 reconstitution.
A further data set has as its system RelA. The experiment in a line: Subcellular fraction-IB assay of nuclear RelA in lung cancer cells. The class given is cell-based, human. As to conditions: for RelA activation: lung cancer cells.
Data set [5] relates to PDLIM2. The experiment in a line: qPCR analysis of PDLIM2 expression in human lung cancer cell lines. The format is cell-based.
Data set [6] has as its system PDLIM2. The experiment in a line: qPCR of PDLIM2 in RAW264.7 macrophages. The class given is cell-based, mouse. An excerpt:
The indicated tissues or cells were subjected to RNA extraction, RNA reverse transcription and real-time PCR using trizol, reverse transcriptase, and Power SYBR Green PCR Master Mix (Thermo Fisher Scientific, Waltham, MA USA).

Data set [7] has as its system BACH1. The experiment in a line: ChIP and nuclear fraction IB of BACH1 in RAW264.7 macrophages. The class given is cell-based, mouse. The protocol: Cells were collected after formaldehyde treatment. The chromatin DNA was extracted, broken into fragments of 300-1000 bp in length by sonication, and immunoprecipitated with antibodies to the target. IgG was used in immunoprecipitation as a control for nonspecific signal. DNA in the immunoprecipitation product was amplified by PCR.
Whole-cell extracts were prepared by lysing cells in RIPA buffer. Nuclear extracts were prepared by lysing pellets in insoluble nuclear buffer (20 mM Tris, pH 8.0, 150 mM NaCl, 1% [wt/vol] SDS, 1% [vol/vol] NP-40, and 10 mM iodoacetamide) after the cytoplasm was extracted with the hypotonic buffer (20 mM HEPES, pH 8.0, 10 mM KCl, 1 mM MgCl2, 0.1% [vol/vol] Triton X-100, and 20% [vol/vol] glycerol). The purity of the nuclear fractions was confirmed by checking Hsp90 (cytoplasm) or lamin B/C (nuclear fraction). All the lysis buffers were supplemented with 1 mM PMSF and a protease inhibitor cocktail (Roche Molecular Biochemicals). The cell extracts were used for […]. Briefly, the cell extracts were separated on polyacrylamide gels followed by electrotransfer onto nitrocellulose membranes. […] Specific immune complexes were detected by enhanced chemiluminescence as specified by the manufacturer (Western Lightning ECL Pro; Amersham).

Data set [8] deals with BACH1. The experiment in a line: IF analysis of BACH1 nuclear translocation in AMs of mice with lung tumors. Set-up: species or system mouse. As to conditions: mice with lung tumors (urethane); in vivo treatment, 5 mg/ml in drinking water. The procedure:
(§2) The animal experiments were performed in accordance with the US National Institutes of Health (NIH) Guidelines on the Use of Laboratory Animals. All animals were maintained under pathogen-free conditions. […], […] and Lysozyme M-Cre mice have been described before (Sun et al., Nat Commun 2019; 10:5324; Zhou et al., Oncogene 2015; 34:3804-3814; Zhou et al., Cancer Immunol Res 2017; 5:257-268; Li et al., Oncoimmunology 2018; 7:e1435250). Luciferase-expressing mice, PD-1 deficient mice and CD80/CD86 deficient mice were purchased from The Jackson Laboratory. Except for the PD-1 deficient mice and CD80/CD86 deficient mice, which are under […] background, all other mice were backcrossed to FVB/N mice (The Jackson Laboratory) for more than ten generations, and then used to generate the experimental mice. […] Louis, MO, USA) once a week for six consecutive weeks (8-10). […] Surface tumors in mouse lungs were counted by three blinded readers under a dissecting microscope, and tumor diameters were measured by microcalipers. […] Stained proteins and their subcellular localizations were detected using a fluorescence microscope.

Data set [9] relates to PDLIM2. The experiment in a line: qPCR and IF of PDLIM2 in AMs of mice with lung tumors. Set-up: species or system mouse. Conditions: mice with lung tumors (urethane); in vivo treatment. The procedure: as §2, with “microscope. […]” for “microscope.”
Where [10] appears, read: ΔSPC mice vs WT, carboplatin and paclitaxel combination therapy (Chemo).
Setting [11] is: ΔSPC mice, PD-1 blockade combined with carboplatin/paclitaxel chemotherapy.

In the case of `Nc1ncn([C@H]2C[C@H](O)[C@@H](CO)O2)c(=O)n1` [5-aza-dC, 5-azadeoxycitidine], the animal body weight result in data set [1] is on record as “body weight loss”.
For the compound `CC(=O)O[C@H]1C(=O)[C@@]2(C)[C@H]([C@H](OC(=O)c3ccccc3)[C@]3(O)C[C@H](OC(=O)[C@H](O)[C@@H](NC(=O)c4ccccc4)c4ccccc4)C(C)=C1C3(C)C)[C@]1(OC(C)=O)CO[C@@H]1C[C@@H]2O` [paclitaxel], the “tumor number and tumor burden” value in data set [2] is “significant decrease in tumor number and tumor burden”. Moreover, the “lung cancer treatment (tumor examination)” value in data set [2] (setting [10]) was “more resistant; also recorded: increased resistance”; in data set [2] (setting [11]) it was “resistant; also recorded: more resistant”. For the same compound, the “paclitaxel sensitivity (cell growth assays)” value with human lung cancer cells (A549 cells with PDLIM2 reconstitution, consecutive 9-day paclitaxel cycles) is listed as “increased paclitaxel sensitivity”; in the data set on human lung cancer cells (H460 cells with PDLIM2 reconstitution, consecutive 9-day paclitaxel cycles), “increased paclitaxel sensitivity”; in the data set with human lung cancer cells (H460 human lung cancer cells with stable IκBα expression), “overcame the paclitaxel resistance; also recorded: increased paclitaxel sensitivity”. Further, in the data set on human lung cancer cells (lung cancer cells with ectopic PDLIM2 expression), the “acquired resistance to paclitaxel” value is recorded as “overcame the acquired resistance; also recorded: block acquired resistance”. Also, the “PD-L1 expression (qPCR)” value in the data set with PD-L1 [3] (lung cancer cells) is listed as “PD-L1 induction”. Also, in the data set on PD-L1 [4], the “PD-L1 expression in lung cancer (IHC staining)” value was “PD-L1 induction”. For the same compound, the “MDR1 expression (qPCR)” value with MDR1 is given as “PDLIM2 suppressed paclitaxel induction of MDR1”. Besides, the “nuclear RelA (subcellular fraction-IB)” value in the data set on RelA (H460 human lung cancer cells reconstituted with PDLIM2) is given as “much lower paclitaxel induction of nuclear RelA”. The RelA activation result in the data set with RelA is reported as “further induced”; with RelA (listed as Paclitaxel), “increased RelA activation”.
As for `CC(/C=C/C(=O)NO)=C\[C@@H](C)C(=O)c1ccc(N(C)C)cc1` [TSA, Trichostatin A], the results for the “PDLIM2 expression (qPCR)” value in the data set on PDLIM2 [5] (H460 human lung cancer cells) and with PDLIM2 [5] (human lung cancer cell lines) were “PDLIM2 recovery” and “induced PDLIM2 re-expression”, respectively.
Take `N.N.O=C([O-])C1(C(=O)[O-])CCC1.[Pt+2]` [carboplatin]: the “tumor number and tumor burden” value in data set [2] is “significant decrease in tumor number and tumor burden”. The “lung cancer treatment (tumor examination)” value in data set [2] (setting [10]) was “more resistant; also recorded: increased resistance”; in data set [2] (setting [11]), “resistant; also recorded: more resistant”. The “PD-L1 expression (qPCR)” value in the data set on PD-L1 [3] (Calu-6 human lung cancer cells) and with PD-L1 [3] (lung cancer cells) was “PD-L1 induction” each time. The “PD-L1 expression in lung cancer (IHC staining)” value with PD-L1 [4] is “PD-L1 induction”.
On to `OO` [H2O2], for which the “PDLIM2 expression (qPCR)” value in the data set on PDLIM2 [6] (RAW264.7 macrophages treated with H2O2) is given as “PDLIM2 expression decrease; also recorded: decreased PDLIM2”. Further, the “nuclear BACH1 (nuclear fraction IB)” value in the data set on BACH1 [7] (RAW264.7 macrophages) is “induced BACH1 nuclear translocation; also recorded: increased nuclear BACH1”. In addition, the “BACH1 and Pol II bound to the pdlim2 promoter (ChIP)” value with BACH1 [7] (RAW264.7 mouse macrophages, 500 μM, 4 hours) is reported as “detected BACH1 at the BACH1-binding site; also recorded: more BACH1 but less Pol II bound to the pdlim2 promoter”.
Turning to `CC(=O)N[C@@H](CS)C(=O)O` [NAC, N-Acetyl-L-cysteine], the “PDLIM2 expression (qPCR)” value in the data set with PDLIM2 [6] (RAW264.7 macrophages in LLC lung tumor cell co-culture) is reported as “could block the PDLIM2 suppression; also recorded: recovery”. In the data set on BACH1 [8], the “BACH1 nuclear translocation in AMs (IF)” value is given as “could efficiently be blocked; also recorded: inhibition of BACH1 nuclear translocation”. In the data set with PDLIM2 [9], the “PDLIM2 in AMs (IF)” value is recorded as “PDLIM2 induction” and the “PDLIM2 in AMs (qPCR)” value is listed as “could efficiently be blocked; also recorded: increased PDLIM2”.

The record behind these values is US12637498B2, “PDLIM2 as a biomarker for cancer and as an anti-cancer treatment target” (UNIVERSITY OF PITTSBURGH—OF THE COMMONWEALTH SYSTEM OF …, priority 2019, dated 2026).
